Assay results reported in patent US9261498B2, “Biomarker for sensitivity to mTOR inhibitor therapy in kidney cancer” (The Regents of the University of California, priority 2005, dated 2016).

Tested on: mTOR
Test: Immunoblot of S6 phosphorylation in xenograft tumors
Format: in vivo, SCID mice
Conditions: parental and knockdown xenografts, 0.1 mg/kg, day 5 of treatment
Protocol: FIGS. 1A-1E. Effects of VHL knockdown on sensitivity to CCI-779. (a) Immunoblotting of lysates derived from shRNA and control (empty vector, V) in SN12C, using antibodies against VHL (both isoforms detected), HIF-1α, HIF-2α, GLUT-1, CA-IX and β-Actin (as a loading control). (b) SN12C-CSCG and SN12C-VHLshRNA cells (1×10^5) were cultured in 10% serum rich media, in the presence of vehicle, 1 or 10 nM of CCI-779 for 5 days. Cell growth was measured by cell counts (n=3). […] (c) SN12C-CSCG (C1) and SN12C-CSCG shVHL RNA (C2) cells were injected into SCID mice at a dose of 1×10^6 cells per mouse (n=30). […] Phosphorylated-S6 protein in SN12C-CSCG and SN12C-VHL shRNA xenograft tumors treated with vehicle or 0.1 mg/kg of CCI-779 was measured by immunoblot C3 and C4). […]
Cells and xenograft tumors were lysed in ECB lysis buffer (see, e.g. Kondo et al., Cancer Cell 1, 237-46 (2002)) or high-detergent buffer (2% SDS), (see, e.g. Chen et al., Nat Med 10, 33-9 (2004)), respectively, supplemented with complete protease and phosphatase inhibitor cocktails (Calbiochem). […] Bound antibody was detected using enhanced chemiluminescence (ECL, Amersham). For VEGF ELISA quantification, cells were plated in 6 well plates (1×10^5 per well). […] Thirty-six hours later, VEGF ELISA (R&D Systems) was performed according to the manufacturer's instructions, using a Fisher Plate reader. […]

For `CO[C@H]1C[C@@H]2CC[C@@H](C)[C@@](O)(O2)C(=O)C(=O)N2CCCC[C@H]2C(=O)O[C@H]([C@H](C)C[C@@H]2CC[C@@H](OC(=O)C(C)(CO)CO)[C@H](OC)C2)CC(=O)[C@H](C)/C=C(\C)[C@@H](O)[C@@H](OC)C(=O)[C@H](C)C[C@H](C)/C=C/C=C/C=C/1C` [CCI-779], the “S6 phosphorylation in xenograft tumors” value was “decrease in S6 phosphorylation”.
